Data published in patent US20240254121A1, “ALKYLAMIDE SUBSTITUTED, ANNULATED IMIDAZOLES AND USE THEREOF AS INSECTICIDES” (Bayer Aktiengesellschaft, priority 2021, published 2024).

Columns and labels:
Format in all cases: in vivo
[1] = tested on: southern root-knot nematode (Meloidogyne incognita); assay: Meloidogyne incognita test; conditions: 20 ppm, lettuce, after 14 days
Experimental: Meloidogyne Incognita—Test
• Solvent: 125.0 parts by weight of acetone
(§1) To produce a suitable preparation of active compound, 1 part by weight of active compound is mixed with the stated amount of solvent, and the concentrate is diluted with water to the desired concentration.
Vessels are filled with sand, a solution of the active ingredient, a suspension containing eggs and larvae of the southern root-knot nematode (Meloidogyne incognita) and lettuce seeds. The lettuce seeds germinate and the seedlings grow. Galls develop in the roots.
After 14 days the nematicidal effect in percent is determined by the formation of galls. 100% means no galls were found and 0% means the number of galls found on the roots of the treated plants was equal to that in untreated control plants.

[2] = tested on: larvae of the southern green stink bug (Nezara viridula); assay: Nezara viridula spray test; conditions: 96 h, barley plants, after 4 days
Experimental: Nezara viridula—Spray Test • Solvent: 78.0 parts by weight of acetone • 1.5 parts by weight of dimethylformamide • Emulsifier: alkylarylpolyglycol ether
(§2) To produce a suitable preparation of active compound, 1 part by weight of active compound is mixed with the stated amount of solvent, and the concentrate is diluted with water, containing an emulsifier concentration of 1000 ppm, to the desired concentration. Further test concentrations are prepared by dilution with emulsifier containing water.
Barley plants (Hordeum vulgare) are sprayed with a test solution containing the desired concentration of the active ingredient and are infested with larvae of the southern green stink bug (Nezara viridula).
After 4 days mortality in % is determined. 100% means all the stink bugs have been killed; 0% means none of the stink bugs have been killed.

[3] = tested on: green peach aphid (Myzus persicae); assay: Myzus persicae spray test; conditions: foliar, 120 h, 100 g/ha, Chinese cabbage leaf disks, after 5 days
Experimental: Myzus persicae—Spray Test • Solvent: 78.0 parts by weight acetone • 1.5 parts by weight dimethylformamide • Emulsifier: alkylarylpolyglycol ether
as §2, with “solvents” for “solvent,”, “and” for “and the concentrate”
Chinese cabbage (Brassica pekinensis) leaf disks infected with all instars of the green peach aphid (Myzus persicae), are sprayed with a preparation of the active ingredient of the desired concentration.
(§3) After 5 days mortality in % is determined. 100% means all aphids have been killed and 0% means none of the aphids have been killed.

[4] = tested on: larvae of the banded cucumber beetle (Diabrotica balteata); assay: Diabrotica balteata spray test; conditions: 168 h, 100 g/ha (=32 μg/well), wheat seeds, after 7 days, read-out: efficacy (seedling growth)
Experimental: Diabrotica Balteata—Spray Test
• Solvent: 78.0 Parts by Weight of Acetone • 1.5 parts by weight of dimethylformamide • Emulsifier: Alkylarylpolyglycol Ether
as §2
Soaked wheat seeds (Triticum aestivum) are placed in a multiple well plate filled with agar and some water and are incubated for 1 day to germinate (5 seeds per well). The germinated wheat seeds are sprayed with a test solution containing the desired concentration of the active ingredient. Afterwards each unit is infected with 10-20 larvae of the banded cucumber beetle (Diabrotica balteata).
After 7 days efficacy in % is determined. 100% means all the seedlings have grown up like in the untreated, uninfected control; 0% means none of the seedlings have grown.

[5] = tested on: adult engorged female ticks (Rhipicephalus microplus); assay: Rhipicephalus (Boophilus) microplus injection test; conditions: 4 μg/tick, egg deposition after 7 days
Experimental: Rhipicephalus (Boophilus) Microplus—Injection Test
• Solvent: Dimethyl Sulfoxide
To produce a suitable preparation of active compound, 10 mg of active compound are dissolved in 0.5 mL solvent, and the concentrate is diluted with solvent to the desired concentration.
Five adult engorged female ticks (Rhipicephalus microplus) are injected with 1 μL compound solution into the abdomen. The ticks are transferred into replica plates and incubated in a climate chamber.
After 7 days egg deposition of fertile eggs is monitored. Eggs where fertility is not visible are stored in a climate chamber till hatching after about 42 days. An efficacy of 100% means all eggs are infertile; 0% means all eggs are fertile.

[6] = tested on: adult flies Musca domestica strain WHO-N; assay: Musca domestica test (MUSCDO surface treatment & contact assay); conditions: 24 hours after contact, read-out: efficacy (mortality); for mortality at 20 mg/m2: surface concentration 20 mg/m^2, 30 minutes exposure
Experimental: Musca domestica Test (MUSCDO Surface Treatment & Contact Assay) • Solvent: Aceton+2000 ppm rapeseed oil methyl ester (RME)
(§4) In order to produce a sufficient, active ingredient containing solution it is necessary to solve the test compound in the solvent-mix (acetone at 2 mg/ml/RME 2000 ppm). This solution is pipetted onto a glazed tile and after evaporation of the acetone, adult flies of the species Musca domestica strain WHO-N are placed onto the dried surface. The exposure time is 30 minutes. Mortality in percent (%) is determined 24 hours after contact of the insects to the treated surface. 100% mortality means that all tested insects are dead, whereas 0% means that no insect died.

[7] = tested on: adult mosquitoes Aedes aegypti strain MONHEIM; assay: Aedes aegypti test (AEDSAE surface treatment & contact assay); conditions: 24 hours after contact, read-out: efficacy (mortality); for mortality at 4 mg/m2: surface concentration 4 mg/m^2, 30 minutes exposure; for mortality at 20 mg/m2: surface concentration 20 mg/m^2, 30 minutes exposure
Experimental: Aedes aegypti Test (AEDSAE Surface Treatment & Contact Assay) • Solvent: Aceton+2000 ppm rapeseed oil methyl ester (RME)
as §4, with “mosquitoes” for “flies”, “Aedes aegypti” for “Musca domestica”, “MONHEIM” for “WHO-N”

[8] = tested on: cattle tick larvae (Rhipicephalus microplus); assay: Rhipicephalus (Boophilus) microplus in-vitro contact test, larval cattle tick (strain Parkhurst, resistant against synthetic pyrethroids); conditions: after 48 hours, read-out: efficacy (larvae dead or moribund); for pest or weed control at 1 µg/cm2, 100 g/ha: 1 μg/cm^2 (=100 g/ha); for pest or weed control at 5 µg/cm2, 500 g/ha: 5 μg/cm^2 (=500 g/ha)
Experimental: Rhipicephalus (Boophilus) Microplus—In-Vitro Contact Tests Larval Cattle Tick (Strain Parkhurst, Resistant Against Synthetic Pyrethroids)
9 mg compound is solved in 1 mL acetone and diluted with acetone to the desired concentration. 250 μL of the test solution is filled in 25 mL glass test tubes and homogeneously distributed on the inner walls by rotation and tilting on a shaking device (2 h at 30 rpm). With a compound concentration of 900 ppm, an inner surface of 44.7 cm^2 and a homogeneous distribution, a dose of 5 μg/cm^2 is achieved.
After the solvent has evaporated, each test tube is filled with 20-50 cattle tick larvae (Rhipicephalus microplus), closed with a perforated lid and incubated in a horizontal position at 85% relative humidity and 27° C. in an incubator. After 48 hours efficacy is determined. The larvae are patted on the ground of the tubes and negative geotactic behavior is recorded.
An efficacy of 100% means all larvae are dead or moribund; 0% means no larvae are dead or moribund.

[9] = tested on: fall armyworm larvae (Spodoptera frugiperda); assay: Spodoptera frugiperda spray test; conditions: 168 h, maize leaf sections, after 7 days
Experimental: Spodoptera frugiperda—Spray Test • Solvent: 78.0 parts by weight acetone • 1.5 parts by weight dimethylformamide • Emulsifier: alkylarylpolyglycol ether
as §2, with “solvents” for “solvent,”, “and” for “and the concentrate”
Maize (Zea mays) leaf sections are sprayed with a preparation of the active ingredient of the desired concentration. Once dry, the leaf sections are infested with fall armyworm larvae (Spodoptera frugiperda).
After 7 days mortality in % is determined. 100% means all caterpillars have been killed and 0% means none of the caterpillars have been killed.

[10] = tested on: adult mosquitoes Culex quinquefasciatus strain P00; assay: Culex quinquefasciatus test (CULXFA surface treatment & contact assay); conditions: 24 hours after contact, read-out: efficacy (mortality)
Experimental: Culex quinquefasciatus Test (CULXFA Surface Treatment & Contact Assay) • Solvent: Aceton+2000 ppm rapeseed oil methyl ester (RME)
as §4, with “2,000” for “2000”, “mosquitoes” for “flies”, “Culex quinquefasciatus” for “Musca domestica”, “P00” for “WHO-N”

[11] = tested on: brown planthopper (Nilaparvata lugens); assay: Nilaparvata lugens spray test; conditions: 96 h, rice plants, after 4 days
Experimental: Nilaparvata lugens—Spray Test • Solvent: 78.0 parts by weight of acetone • 1.5 parts by weight of dimethylformamide • Emulsifier: alkylarylpolyglycol ether
as §2, with “solvents” for “solvent,”, “and” for “and the concentrate”
Rice plants (Oryza sativa) are sprayed with a preparation of the active ingredient of the desired concentration and the plants are infested with the brown planthopper (Nilaparvata lugens).
After 4 days mortality in % is determined. 100% means all planthoppers have been killed and 0% means none of the planthoppers have been killed.

[12] = tested on: adult unfed cat fleas (Ctenocephalides felis); assay: Ctenocephalides felis oral test; conditions: 48 h, 100 ppm in citrated cattle blood, after 2 days
Experimental: Ctenocephalides felis—Oral Test • Solvent: Dimethyl Sulfoxide
To produce a suitable preparation of active compound, 10 mg of active compound are dissolved in 0.5 mL solvent, and the concentrate is diluted with citrated cattle blood to the desired concentration.
Approximately 20 adult unfed cat fleas (Ctenocephalides felis) are placed in a flea chamber whose top and bottom is covered with gauze. A chamber whose bottom is sealed with parafilm, is filled with the blood-compound solution and placed on top of the flea chamber, so that the fleas can suck the blood. The blood chamber is heated to 37° C. whereas the flea chamber is kept at room temperature.
After 2 days mortality in % is determined. 100% means all the fleas have been killed; 0% means none of the fleas have been killed.

[13] = tested on: green peach aphid (Myzus persicae); assay: Myzus persicae oral test; conditions: 120 h, after 5 days
Experimental: Myzus persicae—Oral Test • Solvent: 100 parts by weight acetone
as §1
(§5) 50 μL compound solution is filled in microtiter plates and 150 μL IPL41 insect medium (33%+15% sugar) is added to obtain a total volume of 200 μL per well. Afterwards the plates are sealed with parafilm through which a mixed population of the green peach aphid (Myzus persicae) can suck on the compound preparation.
as §3

[14] = tested on: cotton aphid (Aphis gossypii); assay: Aphis gossypii oral test; conditions: 120 h, after 5 days
Experimental: Aphis gossypii—Oral Test • Solvent: 100 Parts by Weight Acetone
as §1
as §5, with “cotton” for “green peach”, “(Aphis gossypii)” for “(Myzus persicae)”
as §3

[15] = surface concentration 4 mg/m^2, 30 minutes exposure

Compound	nematicidal effect (formation of galls) [1] [%]	mortality at 500 g/ha [2] [%]	mortality at 100 g/ha [3] [%]	pest or weed control at 32 µg/disc, 100 g/ha [4] [%]	efficacy (infertile eggs) [5] [%]	mortality at 4 mg/m2 [6, 15] [%]	mortality at 20 mg/m2 [6] [%]	mortality at 4 mg/m2 [7] [%]	mortality at 20 mg/m2 [7] [%]	pest or weed control at 1 µg/cm2, 100 g/ha [8] [%]	pest or weed control at 5 µg/cm2, 500 g/ha [8] [%]	mortality at 100 g/ha [9] [%]	mortality at 4 mg/m2 [10, 15] [%]	mortality at 20 mg/m2 ([10]; surface concentration 20 mg/m^2, 30 minutes exposure) [%]	mortality at 500 g/ha [11] [%]	mortality at 100 ppm [12] [%]	mortality at 20 ppm [13] [%]	mortality at 100 ppm [14] [%]
CNC(=O)c1ccc(-n2c(C(C)NC(=O)c3cc(C(F)(F)F)cc(C(F)(F)F)c3)nc3cccnc32)nc1 (stereo not drawn) [Example I-25]	90	100	–	–	–	–	–	–	–	–	–	–	–	–	–	–	–	–
C[C@H](NC(=O)c1cc(OC(F)(F)F)cc(C2(C#N)CC2)c1)c1nc2cccnc2n1-c1ccc(C#N)cn1 [Example I-3]	–	100	100	100	100	80 to 100	80 to 100	80 to 100	80 to 100	90	90	100	80 to 100	80 to 100	90	–	–	–
C[C@H](NC(=O)c1cc(OC(F)(F)F)cc(C(C)(C)C#N)c1)c1nc2cccnc2n1-c1ccc(C#N)cn1 [Example I-1]	–	–	–	100	100	–	80 to 100	–	80 to 100	90	80	100	–	–	100	100	–	–
CNC(=O)c1ccc(-n2c(C(C)NC(=O)c3cc(OC(F)(F)F)cc(OC(F)(F)F)c3)nc3cccnc32)nc1 (stereo not drawn) [Example I-27]	90	–	–	–	–	–	–	80 to 100	–	–	–	–	–	–	–	–	100	100
C[C@H](NC(=O)c1cc(OC(F)(F)F)cc(S(C)(=O)=O)c1)c1nc2cc(F)cnc2n1-c1ccc(C#N)cn1 [Example I-38]	90	100	–	100	–	–	–	–	–	–	–	100	–	–	–	–	–	–
